Assay [1] has as its system Rattus norvegicus. Briefly: Serum creatinine concentration measured after intraperitoneal administration of 1 mg/kg of compound to rats(vehicle 3.75+/-0.34). Type of assay: functional.
Assay [2] concerns Rattus norvegicus. As to the kind of experiment: Serum creatinine concentration measured after intraperitoneal administration of 10 mg/kg of compound to rats(vehicle 4.21+/-0.21). Type of assay: functional.
Assay [3] relates to Rattus norvegicus. Briefly: Urea nitrogen concentration measured after intraperitoneal administration of 1 mg/kg of compound to rats(vehicle 137.4+/-16.5). It counts as functional.
Assay [4] concerns Rattus norvegicus. Briefly: Oral diuretic activity was measured after oral administration of 25 mg/kg to rats(control volume is 0.74+/-0.07). Type of assay: functional, Urine.
The test system of assay [5] is Rattus norvegicus. Briefly: Percent inhibition of serum creatinine by the compound given as ratio of Cr value in treated to vehicle treated ones after intraperitoneal administration of 10 mg/kg of compound to rats(vehicle 4.21+/-0.21). Type of assay: functional. As to conditions: ip.
Assay [6] concerns Rattus norvegicus. Briefly: Ratio of urinary excretion value (urinary volume) in treated rats to that in control rats, at a peroral dose of 25 mg/Kg. Type of assay: functional, Urine.
The test system of assay [7] is Rattus norvegicus. As to the kind of experiment: Ratio of sodium ion/potassium ion concentration in treated rats to that in control rats, at a peroral dose of 25 mg/Kg. It counts as functional.
The test system of assay [8] is Rattus norvegicus. As to the kind of experiment: Ratio of urinary excretion value (Na+ concentration) in treated rats to that in control rats, at a peroral dose of 25 mg/Kg. Type of assay: functional, Urine.
The test system of assay [9] is Rattus norvegicus. Briefly: Effect on urinary excretion potassium and sodium after oral administration of 25 mg/kg to rats(potassium and sodium excretion in control rat is 0.172+/-0.015). It counts as functional, Urine.
The subject of assay [10] is Rattus norvegicus. As to the kind of experiment: Percent inhibition of serum creatinine by the compound given as ratio of Cr value in treated to vehicle treated ones after intraperitoneal administration of 1 mg/kg of compound to rats(vehicle 3.75+/-0.34). It counts as functional. The following applies: ip.
Assay [11] has as its system Rattus norvegicus. Briefly: Urea nitrogen concentration measured after intraperitoneal administration of 10 mg/kg of compound to rats(vehicle 144.1+/-6.1). Type of assay: functional.
Assay [12] has as its system Rattus norvegicus. As to the kind of experiment: Percent inhibition of Urea nitrogen by the compound given as ratio of UN value in treated to vehicle treated ones after intraperitoneal administration of 10 mg/kg of compound to rats(vehicle 144.1+/-6.1). As to conditions: ip. It counts as functional.
For assay [13], the system named is Rattus norvegicus. As to the kind of experiment: Percent inhibition of Urea nitrogen by the compound given as ratio of UN value in treated to vehicle treated ones after intraperitoneal administration of 1 mg/kg of compound to rats(vehicle 137.4+/-16.5). It counts as functional. As to conditions: ip.
Another assay concerns the target T1, Adenosine receptor A1 (Cavia porcellus, UniProt P47745).
T1 sequence (P47745 whole entry): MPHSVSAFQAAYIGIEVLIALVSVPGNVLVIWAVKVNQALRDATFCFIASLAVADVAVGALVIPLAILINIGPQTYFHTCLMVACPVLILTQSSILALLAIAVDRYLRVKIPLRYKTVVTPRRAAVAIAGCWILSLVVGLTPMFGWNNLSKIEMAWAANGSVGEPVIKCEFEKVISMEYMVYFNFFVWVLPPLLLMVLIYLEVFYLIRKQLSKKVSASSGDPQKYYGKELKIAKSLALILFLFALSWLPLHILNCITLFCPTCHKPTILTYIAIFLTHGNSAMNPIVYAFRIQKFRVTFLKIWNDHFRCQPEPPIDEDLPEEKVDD

Another assay addresses Adenosine A2 receptor (Rattus norvegicus, UniProt P29276+P30543).
The test system of assay [14] is Rattus norvegicus. Briefly: Serum creatinine concentration measured after intraperitoneal administration of 1 mg/kg of compound to rats(vehicle 5.07+/-0.33). The following applies: 1 mg/kg. It counts as functional.
The subject of assay [15] is Rattus norvegicus. As to the kind of experiment: Urea nitrogen concentration measured after intraperitoneal administration of 1 mg/kg of compound to rats(vehicle 195.8+/-14.4). The following applies: 1 mg/kg. Type of assay: functional.
The subject of assay [16] is Rattus norvegicus. Briefly: Ratio of urinary excretion value (Na+ concentration) in treated rats to that in control rats, at a peroral dose of 6.25 mg/Kg. It counts as functional, Urine.
Assay [17] has as its system Rattus norvegicus. As to the kind of experiment: Effect on urinary excretion potassium and sodium after oral administration of 25 mg/kg to rats(potassium and sodium excretion in control rat is 0.180+/-0.024). It counts as functional, Urine.
Assay [18] relates to Rattus norvegicus. Briefly: Oral diuretic activity was measured after oral administration of 25 mg/kg to rats(control volume is 1.00+/-0.09). Type of assay: functional, Urine.
In assay [19] the test system is Rattus norvegicus. Briefly: Percent inhibition of Urea nitrogen by the compound given as ratio of UN value in treated to vehicle treated ones after intraperitoneal administration of 1 mg/kg of compound to rats(vehicle 195.8+/-14.4). The following applies: 1 mg/kg. Type of assay: functional.
The test system of assay [20] is Rattus norvegicus. Briefly: Ratio of urinary excretion value (urinary volume) in treated rats to that in control rats, at a peroral dose of 6.25 mg/Kg. Type of assay: functional, Urine.
The species named for assay [21] is Rattus norvegicus. As to conditions: dose 1 mg/kg, route intraperitoneal.

Bounds are passed on as bounds.

Description for Adenosine receptor A1: Binding affinity against adenosine A1 receptor in guinea pig forebrain membranes using N6-[3H]cyclohexyladenosine as radioligand

On to `CCCn1c(=O)c2c(nc(C3CCCC3)n2C)n(CCC)c1=O`, for which the Cr came out at 2.62 mg/dL with Rattus norvegicus [1] and 3.07 mg/dL in the assay on Rattus norvegicus [2]. Further, the UN in the assay with Rattus norvegicus [3] stood at 99.9 mg/dL; in the assay with Rattus norvegicus [11] it was 107.9 mg/dL. The Urine volume in the assay with Rattus norvegicus [4] worked out at 1.07 ml 6hr-1 100g-1. Besides, the inhibition in vivo at 10 mg/kg in the assay with Rattus norvegicus [5] worked out at 26%; in the assay with Rattus norvegicus [12], 25%. Also, the T/C is given as 1.45 with Rattus norvegicus [6] and 1.07 with Rattus norvegicus [8]. The “Na+/K+” value with Rattus norvegicus [7] worked out at 1. This compound also yielded a Na with Rattus norvegicus [9] of 0.184 m equiv 6hr-1 100g-1. Moreover, the inhibition in vivo at 1 mg/kg with Rattus norvegicus [10] amounted to 30%; with Rattus norvegicus [13] it was 27%. Besides, the Ki was 3.9 µM at Adenosine receptor A1 and over 10 µM at Adenosine A2 receptor.

The compound `CCCn1c(=O)c2nc(C3CC4CCC3C4)[nH]c2n(CCC)c1=O` (stereo in doubt; 20) yielded a Cr in the assay with Rattus norvegicus [14] of 2.54 mg/dL. Further, the UN with Rattus norvegicus [15] was determined as 98.8 mg/dL. Moreover, the T/C came out at 2.13 in the assay with Rattus norvegicus [6], 2.06 in the assay on Rattus norvegicus [8], 1.27 with Rattus norvegicus [16] and 1.12 with Rattus norvegicus [20]. The “Na+/K+” value in the assay with Rattus norvegicus [7] amounted to 1.63. In the assay with Rattus norvegicus [17], this compound displayed a Na of 0.372 m equiv 6hr-1 100g-1. The compound further displayed a Urine volume with Rattus norvegicus [18] of 2.13 ml 6hr-1 100g-1. Also, the Inhibition is given as 49% in the assay with Rattus norvegicus [19] and 50% in the assay listed under Rattus norvegicus [21]. On Adenosine A2 receptor, this compound showed a Ki of 0.29 µM.

Values taken from ChEMBL document CHEMBL1125524, “Adenosine A1 antagonists. 2. Structure-activity relationships on diuretic activities and protective effects against acute renal failure” (J Med Chem, 1992).
